ChEMBL document CHEMBL1201862, “PubChem BioAssay data set” (2004)
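Compound exposure: 48 hours, 5 concentrations, 96-well plates. GI50 = concentration required for 50% inhibition of growth.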 Activity calls are given as the source filed them. Rule as the data show it: active = GI50 up to about 1.1 µM and inactive = higher.

What was measured:
Experiment in all cases: inhibition of tumour cell growth, NCI panel, 48 h
HOP-92 = system: HOP-92
COLO 205 = system: COLO 205
K562 = system: K562
Hs-578T = system: Hs-578T
OVCAR-8 = system: OVCAR-8
UO-31 = system: UO-31
KM12 = system: KM12
HCT-15 = system: HCT-15
CCRF-CEM = system: CCRF-CEM
ACHN = system: ACHN
SK-MEL-2 = system: SK-MEL-2
SK-MEL-5 = system: SK-MEL-5
T47D = system: T47D
NCI-H226 = system: NCI-H226
M14 = system: M14
HOP-62 = system: HOP-62
U-251 = system: U-251
UACC-257 = system: UACC-257
MDA-N = system: MDA-N
NCI-H460 = system: NCI-H460
A549 = system: A549
OVCAR-5 = system: OVCAR-5
HT-29 = system: HT-29
HCC 2998 = system: HCC 2998
BT-549 = system: BT-549
SK-MEL-28 = system: SK-MEL-28
PC-3 = system: PC-3
SN12C = system: SN12C
786-0 = system: 786-0
SR = system: SR
RPMI-8226 = system: RPMI-8226
Malme-3M = system: Malme-3M
A498 = system: A498
HCT-116 = system: HCT-116
MCF7 = system: MCF7
MDA-MB-231 = system: MDA-MB-231
MOLT-4 = system: MOLT-4
RXF 393 = system: RXF 393
TK-10 = system: TK-10
SNB-19 = system: SNB-19
NCI-H23 = system: NCI-H23
EKVX = system: EKVX
IGROV-1 = system: IGROV-1
SW-620 = system: SW-620
SNB-75 = system: SNB-75
HL-60 = system: HL-60
UACC-62 = system: UACC-62
NCI/ADR-RES = system: NCI/ADR-RES
DU-145 = system: DU-145
CAKI-1 = system: CAKI-1
SF-268 = system: SF-268
SF-539 = system: SF-539
SF-295 = system: SF-295
OVCAR-4 = system: OVCAR-4
OVCAR-3 = system: OVCAR-3
SK-OV-3 = system: SK-OV-3
NCI-H522 = system: NCI-H522
MDA-MB-435 = system: MDA-MB-435
LOX IMVI = system: LOX IMVI

Measured: GI50

CCOC(=O)c1c(N)sc2c1C(C(=O)OCC)CCC2 (stereo unspecified)
inactive: HOP-92 > 100 µM | COLO 205 > 100 µM | K562 76.6 µM | Hs-578T > 100 µM | OVCAR-8 > 100 µM | UO-31 47.4 µM | KM12 > 100 µM | CCRF-CEM > 100 µM | ACHN > 100 µM | SK-MEL-2 > 100 µM | SK-MEL-5 98.2 µM | T47D 66.5 µM | NCI-H226 > 100 µM | M14 > 100 µM | HOP-62 > 100 µM | U-251 > 100 µM | UACC-257 > 100 µM | MDA-N > 100 µM | NCI-H460 > 100 µM | A549 > 100 µM | OVCAR-5 > 100 µM | HT-29 > 100 µM | HCC 2998 > 100 µM | BT-549 > 100 µM | SK-MEL-28 > 100 µM | PC-3 68.1 µM | SN12C > 100 µM | 786-0 > 100 µM | SR 66.7 µM | RPMI-8226 > 100 µM | Malme-3M > 100 µM | A498 12.1 µM | HCT-116 79.8 µM | MCF7 > 100 µM | MDA-MB-231 > 100 µM | MOLT-4 > 100 µM | RXF 393 > 100 µM | TK-10 > 100 µM | SNB-19 > 100 µM | NCI-H23 > 100 µM | EKVX 55.8 µM | IGROV-1 > 100 µM | SW-620 > 100 µM | SNB-75 > 100 µM | HL-60 53.3 µM | UACC-62 > 100 µM
> 100 µM: HCT-15

Fc1ccc2c(c1)SC1=Nc3sc4cc(F)ccc4[n+]3CN12
29.5 µM: HCT-15
active: RPMI-8226 0.437 µM | HL-60 < 0.01 µM
inactive: HOP-92 17.1 µM | COLO 205 26.9 µM | NCI/ADR-RES 18.2 µM | DU-145 26.7 µM | K562 14.3 µM | Hs-578T 9.98 µM | OVCAR-8 14.6 µM | CAKI-1 14.9 µM | UO-31 19.1 µM | SF-268 29.6 µM | ACHN 20.6 µM | SK-MEL-2 21.4 µM | SF-539 12.7 µM | SK-MEL-5 11.1 µM | T47D 13.7 µM | NCI-H226 21.3 µM | M14 25.8 µM | HOP-62 19.5 µM | U-251 16.7 µM | UACC-257 18.9 µM | SF-295 32.1 µM | OVCAR-4 14.5 µM | NCI-H460 25.5 µM | A549 12.4 µM | OVCAR-5 25.7 µM | HT-29 28.8 µM | HCC 2998 10.5 µM | OVCAR-3 14.3 µM | BT-549 14.8 µM | SK-MEL-28 39.6 µM | PC-3 21.4 µM | SK-OV-3 22.4 µM | SN12C 17.3 µM | 786-0 18.3 µM | Malme-3M 18.7 µM | A498 12.7 µM | HCT-116 22.5 µM | MCF7 21.6 µM | MDA-MB-231 13.9 µM | NCI-H522 12.1 µM | RXF 393 26.5 µM | TK-10 18.8 µM | MDA-MB-435 39.6 µM | SNB-19 16.4 µM | LOX IMVI 18.4 µM | NCI-H23 17.5 µM | EKVX 28 µM | IGROV-1 3.91 µM | SW-620 27.3 µM | SNB-75 15.9 µM | UACC-62 11.1 µM

Cc1cc2c3c(nc4ccccc42)C(=O)c2ccccc2-c3n1
inactive: HOP-92 19.3 µM | COLO 205 16.8 µM | NCI/ADR-RES 6.53 µM | DU-145 23.5 µM | Hs-578T 13.4 µM | OVCAR-8 5.52 µM | CAKI-1 12.3 µM | UO-31 10.5 µM | SF-268 30.6 µM | CCRF-CEM 5.16 µM | ACHN 12.2 µM | SK-MEL-2 17.9 µM | SF-539 19.3 µM | T47D 12.7 µM | NCI-H226 21 µM | M14 4.44 µM | HOP-62 6.18 µM | U-251 16.1 µM | UACC-257 22.8 µM | SF-295 10.1 µM | OVCAR-4 25.4 µM | A549 7.1 µM | OVCAR-5 32 µM | HT-29 21.7 µM | HCC 2998 20.1 µM | BT-549 16.9 µM | SK-MEL-28 14.6 µM | SK-OV-3 14.8 µM | SN12C 17 µM | 786-0 25.5 µM | SR 1.79 µM | RPMI-8226 3.14 µM | A498 16.9 µM | HCT-116 8.59 µM | MCF7 10.5 µM | MDA-MB-231 18 µM | NCI-H522 1.68 µM | MOLT-4 3.34 µM | RXF 393 20.3 µM | TK-10 34.8 µM | MDA-MB-435 1.66 µM | SNB-19 45.8 µM | NCI-H23 2.4 µM | EKVX 29.4 µM | IGROV-1 2.98 µM | SW-620 9.48 µM | SNB-75 4.37 µM | UACC-62 1.8 µM
active: K562 0.839 µM | KM12 1.02 µM | SK-MEL-5 0.569 µM | OVCAR-3 0.135 µM | PC-3 0.851 µM
1.35 µM: HCT-15

COc1ccc(Cc2c(N)[nH]c(=O)[nH]c2=O)cc1
> 100 µM: HCT-15
inactive: HOP-92 33.3 µM | COLO 205 > 100 µM | NCI/ADR-RES > 100 µM | K562 > 100 µM | Hs-578T > 100 µM | OVCAR-8 > 100 µM | CAKI-1 > 100 µM | UO-31 90.2 µM | KM12 > 100 µM | SF-268 > 100 µM | ACHN > 100 µM | SK-MEL-2 > 100 µM | SF-539 > 100 µM | SK-MEL-5 > 100 µM | T47D > 100 µM | NCI-H226 > 100 µM | M14 > 100 µM | HOP-62 > 100 µM | U-251 > 100 µM | UACC-257 > 100 µM | MDA-N > 100 µM | SF-295 > 100 µM | OVCAR-4 > 100 µM | NCI-H460 > 100 µM | A549 > 100 µM | OVCAR-5 > 100 µM | HT-29 > 100 µM | HCC 2998 > 100 µM | OVCAR-3 > 100 µM | BT-549 > 100 µM | SK-MEL-28 > 100 µM | PC-3 > 100 µM | SK-OV-3 > 100 µM | SN12C > 100 µM | 786-0 > 100 µM | RPMI-8226 22 µM | Malme-3M > 100 µM | A498 > 100 µM | HCT-116 > 100 µM | MDA-MB-231 > 100 µM | NCI-H522 > 100 µM | RXF 393 > 100 µM | TK-10 > 100 µM | MDA-MB-435 > 100 µM | SNB-19 > 100 µM | LOX IMVI > 100 µM | NCI-H23 > 100 µM | EKVX > 100 µM | IGROV-1 > 100 µM | SW-620 > 100 µM | SNB-75 > 100 µM | UACC-62 > 100 µM

C/C(Nc1ccc(Cl)cc1Cl)=C1/CCOC1=O
inactive: HOP-92 22.8 µM | COLO 205 > 100 µM | NCI/ADR-RES 77.6 µM | DU-145 > 100 µM | K562 > 100 µM | Hs-578T 33.6 µM | OVCAR-8 48.3 µM | UO-31 40.8 µM | KM12 > 100 µM | SF-268 30.8 µM | CCRF-CEM 25.3 µM | ACHN 92.9 µM | SF-539 25.7 µM | SK-MEL-5 > 100 µM | T47D 46.5 µM | NCI-H226 > 100 µM | HOP-62 27 µM | U-251 27.2 µM | UACC-257 > 100 µM | SF-295 26.6 µM | OVCAR-4 > 100 µM | NCI-H460 89.5 µM | A549 78.7 µM | HT-29 > 100 µM | HCC 2998 > 100 µM | OVCAR-3 > 100 µM | BT-549 24.1 µM | SK-MEL-28 > 100 µM | PC-3 > 100 µM | SN12C 41.5 µM | 786-0 40.4 µM | SR > 100 µM | RPMI-8226 > 100 µM | Malme-3M > 100 µM | A498 59.8 µM | HCT-116 > 100 µM | MCF7 > 100 µM | MDA-MB-231 19.9 µM | NCI-H522 86.5 µM | MOLT-4 87.3 µM | RXF 393 13.5 µM | TK-10 56.4 µM | MDA-MB-435 > 100 µM | SNB-19 26.2 µM | LOX IMVI > 100 µM | NCI-H23 59.3 µM | EKVX 10.4 µM | IGROV-1 > 100 µM | SW-620 > 100 µM | SNB-75 36.9 µM | HL-60 56.5 µM | UACC-62 63.7 µM
> 100 µM: HCT-15
